One experiment addresses T1, PPAR-γ (Homo sapiens, UniProt P37231).
T1 sequence (P37231 1-505): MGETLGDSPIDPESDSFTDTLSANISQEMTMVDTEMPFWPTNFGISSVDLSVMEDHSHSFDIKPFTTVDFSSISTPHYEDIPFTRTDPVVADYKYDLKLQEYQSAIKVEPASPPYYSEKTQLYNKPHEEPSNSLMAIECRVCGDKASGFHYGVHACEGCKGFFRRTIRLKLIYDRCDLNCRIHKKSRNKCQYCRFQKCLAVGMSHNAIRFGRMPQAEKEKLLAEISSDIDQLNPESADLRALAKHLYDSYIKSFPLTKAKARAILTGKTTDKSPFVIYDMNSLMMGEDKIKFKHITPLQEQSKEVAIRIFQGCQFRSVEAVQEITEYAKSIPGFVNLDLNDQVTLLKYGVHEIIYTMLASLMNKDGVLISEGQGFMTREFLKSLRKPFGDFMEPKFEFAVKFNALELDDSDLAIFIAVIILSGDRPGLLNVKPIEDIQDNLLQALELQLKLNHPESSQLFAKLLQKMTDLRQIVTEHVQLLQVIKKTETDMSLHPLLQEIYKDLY
The note with it: covalent modification of Cys285 (Leesnitzer et al., 2002); cited from earlier work.

Experiment [1] concerns the target T2, NF-κB (Homo sapiens, UniProt P19838+Q04206).
T2 construct: nuclear protein extracts from myometrial cells; endogenous in cells; host or cells: primary human myometrial cells (term, passage 1-4)
Briefly: EMSA of NF-κB DNA binding in nuclear extracts of treated amnion cells. The format is cell-based. The note with it: amnion cells treated with 15d-PGJ2 in the presence of the PPAR-γ inhibitor. Here is the method: (§1) Placentae were obtained from patients at term either at elective Caesarean section prior to labour (L−) or following spontaneous labour onset and vaginal delivery (L+). Amnion cells were prepared as described in Bennett et al., (1989). Briefly, the amnion was separated from the placenta, washed 3× in PBS, cut into strips, and incubated in 0.5 mM EDTA in PBS for 15 min. The strips were washed in PBS 2× and digested with 2.5 mg/ml dispase in serum-free DMEM for 35 min at 37° C. The amnion was then shaken vigorously in DMEM, 10% FCS to dissociate the cells, the remaining strips discarded, and the cell suspension pelleted at 175 g for 10 min and cultured in DMEM, 10% FCS (Sigma), 1% L-glutamine, 1% penicillin-streptomycin.
(§2) Nuclear and cytosolic protein extracts were obtained from cultured amnion cells as described by Schreiber et al (1989). For nuclear/cytosolic fractionation, confluent cell monolayers were scraped and lysed using a buffer containing 10 mM HEPES, 10 mM KCl, 0.1 mM EDTA, 0.1 mM EGTA, 2 mM DTT, 1% (v/v) NP-40 and complete protease inhibitor tablets (CPIs, Roche), diluted to manufacturer's instructions. Cell lysates were incubated on ice for 10 min and NP-40 added to a final concentration of 1% (v/v). Lysates were vortexed for 10 secs and centrifuged for 30 secs at 4° C., 12000 g. The supernatants were retained as the cytosolic protein extracts. The pellets were resuspended in buffer containing 10 mM HEPES, 10 mM KCl, 0.1 mM EDTA, 0.1 mM EGTA, 2 mM DTT, 400 mM NaCl, 1% NP-40 (v/v) and CPIs. Samples were shaken vigorously for 15 min in an ice bath. The nuclear protein extracts were obtained in the supernatant following a 5 min centrifugation at 4° C., 12000 g.
(§3) Sense and antisense strands (175 nmole/ml each) were incubated in annealing buffer (10 mM Tris-HCl pH7.5, 100 mM NaCl, 1 mM EDTA) for 10 min at 65° C., and allowed to cool at room temperature for 2 h. 3.5 pmole double-stranded oligonucleotides were end-labelled with 0.37 MBq ^32P(γATP) by incubating for 30 min at 37° C. with T4 polynucleotide kinase. Labelled oligonucleotides were recovered by centrifugation at 3000 rpm for 2 min through MicroSpin G-25 or G-50 sephadex columns (Amersham Biosciences).
(§4) 3-5 μg protein extracts were incubated on ice for 1 h with non-radiolabelled non-specific oligonucleotide (poly(dI-dC) or Oct-1) in a binding buffer (20% (v/V) glycerol, 5 mM MgCl2, 2 mM EDTA, 50 mM Tris-HCl pH7.5, 250 mM NaCl, 2 mM DTT), followed by a 45 min incubation with 0.035 pmole ^32P(γ(ATP)-end labelled oligonucleotide probes:
(§5) Oct-1 or SP-1 consensus sequences were used as a controls for a NF-κB-specific effect. The resulting protein/DNA complexes were separated in a 4% acrylamide gel, the gel dried under vacuum at 80° C. and exposed to X-ray film. For supershift analysis, samples were incubated with 2 μg antibodies for 30 min on ice prior to incubation with oligonucleotides. Non-radio-labelled oligonucleotides were used at 100-fold molar excess for specific and non-specific competition for DNA binding. Reagents for EMSA were obtained from Promega Life Sciences, Delta House, Chilworth Research Centre, Southampton SO16 7NS, United Kingdom.

A further experiment concerns PPARα. Particulars: GAL4 chimera transfection system (Kehrer et al., 2001); cited from earlier work.
Experiment [2] has as its system NF-κB. Briefly: NF-κB-dependent luciferase reporter (κB.BG.Luc) in amnion cells. Format: cell-based, human. Particulars: L− or L+ amnion cells, treated 2 h, IL-1β 1 ng/ml 6 h. Here is the method:
. Values are normalised for b-gal reporter activity.
as §1
pGL3.6κB.BG.luc was the reporter construct used to assess NF-κB-mediated transcription, while the mutant pGL3.6κBmut.luc and empty pGL3.BG.luc were used as controls (Schwarzer et al., 1998).
pGL3.6κB.BG.luc: a NF-κB-dependent reporter construct with 6 copies of the NF-κB binding site. It contains two tandem repeats of the sequence 5′-GGG GAC TTT C CC TGGGGACTTTCCCTGGGGACTTTCCC-3′, which contains three copies of the decameric NF-κB binding site (underlined) upstream of a minimal β-globin promoter driving a luciferase gene.
Cells were co-transfected with the renilla vector pRL-CMV or β-galactosidase vector pCH110 as internal controls for transfection efficiencies.

In another experiment the test system is COX-2. Briefly: Western immunoblot of IL-1β-induced COX-2 protein in myometrial cells. Format: cell-based, human. Particulars: treated 2 h, IL-1β 6 h. As for the experimental part:
(§6) Myometrial tissue was collected at term from the upper margin of uterine incision at the time of lower segment caesarean section either prior to the onset of labour (L−) or […] (L+). L+ samples were collected by Dr Mark Johnson and Dr S Soorrana at Chelsea & Westminster Hospital. Myometrial tissue was dissected, rinsed in PBS, and digested in serum-free DMEM containing 15 mg/ml collagenase 1A (Sigma), 15 mg/ml collagenase X, and 50 mg/ml bovine serum albumin for 45 min at 37° C. The cell suspension was filtered through a cell strainer, centrifuged at 400 g for 5 min, and the pellet re-suspended and plated out in DMEM, 10% FCS (Helena BioScience), 1% L-glutainine, 1% penicillin-streptomycin. Cells were used between passage numbers 1-4.
Nuclear and cytosolic protein extracts were obtained from cultured amnion cells as described by Schreiber et al (1989). […]
Protein samples (20-70 μg) were mixed with Laemmli sample buffer (1:1) containing β-mercaptoethanol (5%), and boiled for 5 min. […] The blots were then incubated with HRP-conjugated secondary antibody (diluted 1:2000 in 1% non-fat milk in PBS-T buffer) for 1 h and washed three times (10 min each) in PBS-T. Signal detection was achieved using enhanced chemi-luminescence (ECL plus system, Amersham Pharmacia Biotech) according to manufacturer's instructions. […]

Experiment [3] concerns the target T2, NF-κB. In words: EMSA of NF-κB DNA binding in nuclear extracts of treated myometrial cells. The format is cell-based. The note with it: myometrial cells. Here is the method:
as §6, §2, §3, §4, §5
A general note: In EMSA bound probe runs differently from free probe, usually more slowly.

The values that follow come from patent publication US20070282004A1, “Use of a Cyclopentenone Prostaglandin for Delaying for the Onset and/or Preventing the Continuation of Labour” (Imperial College Innovations Limited, priority 2003, published 2007).

T2 sequence (Q04206 whole entry): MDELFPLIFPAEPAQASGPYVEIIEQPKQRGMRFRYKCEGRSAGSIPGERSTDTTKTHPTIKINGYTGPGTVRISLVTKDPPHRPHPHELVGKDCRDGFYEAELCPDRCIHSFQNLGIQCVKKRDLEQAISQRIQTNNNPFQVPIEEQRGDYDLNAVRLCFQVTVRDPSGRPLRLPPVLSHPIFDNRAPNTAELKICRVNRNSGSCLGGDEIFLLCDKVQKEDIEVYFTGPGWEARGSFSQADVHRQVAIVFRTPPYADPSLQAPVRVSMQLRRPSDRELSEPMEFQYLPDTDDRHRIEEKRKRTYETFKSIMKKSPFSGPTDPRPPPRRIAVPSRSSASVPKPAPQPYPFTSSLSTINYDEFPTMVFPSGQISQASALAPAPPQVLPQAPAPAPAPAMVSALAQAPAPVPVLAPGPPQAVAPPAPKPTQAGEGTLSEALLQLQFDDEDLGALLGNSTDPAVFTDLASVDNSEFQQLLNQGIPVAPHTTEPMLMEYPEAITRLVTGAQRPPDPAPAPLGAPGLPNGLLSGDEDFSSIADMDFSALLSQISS
T2 sequence (P19838 1-433 limits assumed): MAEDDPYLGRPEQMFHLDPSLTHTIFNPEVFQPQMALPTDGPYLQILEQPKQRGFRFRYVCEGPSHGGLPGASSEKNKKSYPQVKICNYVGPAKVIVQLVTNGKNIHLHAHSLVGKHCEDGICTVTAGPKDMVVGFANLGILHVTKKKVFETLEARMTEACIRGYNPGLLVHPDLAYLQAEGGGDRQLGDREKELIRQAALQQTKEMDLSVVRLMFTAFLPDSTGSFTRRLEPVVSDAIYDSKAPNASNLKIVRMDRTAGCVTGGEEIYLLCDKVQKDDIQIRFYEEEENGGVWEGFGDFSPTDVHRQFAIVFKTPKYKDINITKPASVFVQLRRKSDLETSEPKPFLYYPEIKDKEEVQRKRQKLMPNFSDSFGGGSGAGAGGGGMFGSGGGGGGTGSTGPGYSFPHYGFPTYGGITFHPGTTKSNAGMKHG

Take `O=C(Nc1ccccc1)c1cc([N+](=O)[O-])ccc1Cl` [GW-9662, reference compound]: at PPAR-γ, the “Binding to PPAR-γ” value is “binds irreversibly”. Further, the “Alleviation of 15d-PGJ2 inhibition of NF-κB DNA binding” value was “failed to alleviate” at NF-κB [1] and “does not alleviate” on NF-κB [1] (listed as GW9662).

Consider `Cc1cccc(Nc2cc(Cl)nc(SCC(=O)O)n2)c1C` [WY-14643, reference compound], for which the “Doses that transactivate PPARα” value in the experiment on PPARα was 5 to 25 µM. In addition, the “IL-1β-induced NF-κB transcriptional activity (κB.BG.Luc reporter)” value in the experiment with NF-κB [2] is recorded as “did not”. For the same compound, the “IL-1β-induced COX-2 expression” value with COX-2 is “not”. In addition, the “NF-κB DNA binding (EMSA)” value at NF-κB [3] (10-100 μM concentrations) was “had no effect”. In addition, the “IL-1β-induced NF-κB DNA binding (EMSA)” value at NF-κB [3] (treated 2 h, then IL-1β 15 min) was “do not inhibit”.
